In PMC10762078, “Role of UPF1-LIN28A interaction during early differentiation of pluripotent stem cells” (Nature Communications, 2024):
Ends that are not written are not given here.

Tests used:
[1] = test system: CHA15 cells transcriptome / NMD targets; test: RNA-seq of CPP-peptide-treated CHA15 cells (NMD targets, SDGs; Fig. 6a, b, d; Supplementary Fig. 6a; Supplementary Data 2); type: cell-based, Homo sapiens; settings: CHA15, P2 vs P1 plot (Fig. 6d)
Description: For CPP-conjugated peptide delivery, HeLa, 293T, and PA-1 cells were incubated with CPP-conjugated peptides or CPP-FITC at 2 μM in DMEM with 10% FBS for 12 h a day before cell harvest. hPSCs were treated with CPP-conjugated peptides at 10 μM in mTeSR Plus Medium, […] The ROCK inhibitor (Tocris Bioscience, Y-27632) treated-hPSCs were dissociated into single cells using Accutase (Merck, SCR005) and differentiated into ectoderm, mesoderm, and endoderm using the STEMdiff Trilineage Differentiation Kit ([…] Technologies, 05230) following the manufacturer’s protocol. Differentiated cells treated with CPP-conjugated peptides were analysed at 0, 3, and 5 days for ectoderm and endoderm, and at 0, 3, and 4 days for mesoderm.
Total RNA concentration was calculated using Quant-IT RiboGreen (Invitrogen, R11490). To assess the integrity of the total RNA, samples were run on a TapeStation RNA screentape (Agilent). Only high-quality RNA preparations with RNA integrity number greater than 7.0 were used for the RNA library construction. A library was independently prepared with 1 μg of total RNA from each sample using the Illumina TruSeq Stranded mRNA Sample Prep Kit (Illumina, 20020594). The first step in the workflow involves purifying poly‐A-containing mRNA molecules using poly‐T‐attached magnetic beads. Following purification, mRNA was fragmented into small pieces using divalent cations at elevated temperatures. The cleaved RNA fragments were copied into first-strand cDNA using SuperScript II reverse transcriptase (Invitrogen, 18064022) and random primers. This was followed by second-strand cDNA synthesis using DNA polymerase I, RNase H, and dUTP. These cDNA fragments underwent an end repair process, adding a single ‘A’ base and ligating the adapters. The products were purified and enriched via PCR to create the final cDNA library. The libraries were quantified using the KAPA Library Quantification Kits for Illumina Sequencing platforms according to the qPCR Quantification Protocol Guide (KAPA BIOSYSTEMS, KR0405) and qualified using the TapeStation D1000 ScreenTape (Agilent). Indexed libraries were then submitted to an Illumina NovaSeq (Illumina), and Macrogen Inc. performed paired-end (2 × 100 bp) sequencing.
We pre-processed the raw reads from the sequencer to remove low-quality reads and adapter sequences before analysis and aligned the processed reads to Homo sapiens (GRCh37) using HISAT v2.1.0[52]. HISAT utilises two indices for alignment (a global whole-genome index and tens of thousands of small local indexes). These two types of indices are constructed using the same Burrows-Wheeler transform (BWT)/graph FM index (GFM) as Bowtie2. The reference genome sequence of Homo sapiens (GRCh37) and the annotation data were downloaded from the NCBI database. Transcript assembly was processed using StringTie v1.3.4d[53],[54]. […] Differentially expressed genes (DEGs) were analysed by ratio of FPKM or using DESeq2 with read counts. Log2 fold-change value of the NMD targets[25],[32], three germ layer markers, miRNA targets, or SDGs was converted into cumulative frequency curve using the R function, ‘ecdf’ (version 4.0.5). Gene functional classification and Gene ontology (GO) were performed using g:Profiler[56].

[2] = test system: let-7a, let-7g, miR-16-5p and their targets in CHA15 cells; test: RT-qPCR of mature LIN28A-regulated miRNAs and CDF of let-7-5p / miR-16-5p target mRNAs (Supplementary Fig. 6f); type: cell-based, human; settings: Fig. s6f, cumulative curves; P2/P1; Asymptotic two-sample Kolmogorov-Smirnov test, two-sided
Description: cDNA was synthesised using RevertAid Reverse Transcriptase (Thermo Fisher Scientific, EP0441) with synthesised random hexamer (Macrogen) for total RNA or stem-loop primers for miRNA. For RT-qPCR reactions, the SensiFAST SYBR No-ROX kit (Meridian Bioscience) was used according to the manufacturer’s protocol. All data analysis and visualisation were conducted using R 3.6.1 [www.r-project.org] or GraphPad Prism 10. RT primers for miRNA and RT-qPCR primer sequences are provided in Supplementary Data 6.
Genes regulated by miRNA let-7-5p and miR-16-5p were determined by TargetScanHuman. Among miRNA targets sorted by cumulative weighted context++ score (CWCS)[57], the 100 top genes were selected and analysed using CDF. […]
Scatter
(bottom panel), respectively. f Levels of m ature endogenous m iRNAs in CHA15 cells, which were regulated by LIN28A, were assessed using RT -qPCR. Cum ulative f raction of log2 fold change in the expression of genes regulated by let-7-5p and m iR-16- 5p was shown as CDF graphs. T he relative level of m RNA was norm alised to that of U6 snRNA in (c, d, and f). K–S tests were used for e and f. Unpaired Student’s t-test was used for c , d, and f . * p < 0.05, ** p < 0.01, *** p < 0.001. Exact p -values were provided in Source data. Data are presented as m ean values ± SEM. All statistical test used were two- sided. T he m inim um num ber of independent biological replicate experim ents was a and e n = 2, b–d and f n = 3. T he experim ents were conducted three tim es, each iteration producing consistent results.

His-LIN28A [3] = target: T1, His-LIN28A (Homo sapiens, UniProt Q9H9Z2); test: SPR analyte-ligand binding screening of eight peptides (P1-P8); settings: SPR screening at 15 μM, 3 min association, 6 min dissociation
T1 construct: purchased LS-bio LS-G637
T1 sequence (Q9H9Z2 1-209): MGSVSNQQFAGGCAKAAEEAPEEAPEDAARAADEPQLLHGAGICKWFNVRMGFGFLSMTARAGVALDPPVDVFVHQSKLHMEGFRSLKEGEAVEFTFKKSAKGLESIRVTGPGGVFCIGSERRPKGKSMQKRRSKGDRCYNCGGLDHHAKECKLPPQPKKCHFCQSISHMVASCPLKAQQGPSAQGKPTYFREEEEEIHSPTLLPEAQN
Description: For ligand immobilisation, the nitrilotriacetic acid (NTA) surface gold sensor chip (icluebio) was activated with 5 mM NiCl2 (Xantec) at a flow rate of 30 μL/min, following equalisation with 1× HBS-T buffer. His-LIN28A (LS-bio, LS-G637) was used as a ligand protein and was applied to a sensor chip at a flow rate of 10 μL/min for 40 min after dilution in 1× HEPES-buffered saline (HBS-T) buffer at a 1/20 ratio. Approximately 1000 resonance units (RU) were bonded to the sensor chip after ligand immobilisation. RU was measured using iMSPR-ProX (icluebio). An indigenous NTA sensor chip was used as a reference channel.
Analyte-ligand binding screening was performed by tethering the ligand and reference channels in the connected mode. […] After equalisation with 1× HBS-T buffer, the sensor chip was treated with each peptide for 3 min and then for 6 min with 1× HBS-T buffer for peptide dissociation.

[4] = test system: HeLa, PA-1 and CHA15 cells; test: Cell-penetrating efficiency of CPP-FITC by confocal microscopy; type: cell-based; settings: PA-1, CHA15
Description: For CPP-conjugated peptide delivery, HeLa, 293T, and PA-1 cells were incubated with CPP-conjugated peptides or CPP-FITC at 2 μM in DMEM with 10% FBS for 12 h a day before cell harvest. hPSCs were treated with CPP-conjugated peptides at 10 μM in mTeSR Plus Medium, and the peptide-containing medium was changed every day over 10 days. The ROCK inhibitor (Tocris Bioscience, Y-27632) treated-hPSCs were dissociated into single cells using Accutase (Merck, SCR005) and differentiated into ectoderm, mesoderm, and endoderm using the STEMdiff Trilineage Differentiation Kit ([…] Technologies, 05230) following the manufacturer’s protocol. Differentiated cells treated with CPP-conjugated peptides were analysed at 0, 3, and 5 days for ectoderm and endoderm, and at 0, 3, and 4 days for mesoderm.
Immunofluorescence staining, proximity ligation assay imaging, and cell-penetrating efficiency of CPP-FITC were imaged with a confocal laser scanning microscope (Leica, TSC SP5) or immunofluorescence microscope (Leica, DM5000B). Z-stacks were captured, with sections spanning the entire cell. The LAS X Life Science program was used to obtain the maximum intensity projections and cross-sections of the confocal images.
DAPI FITC Merge DAPI FITC Merge CHA15 H9 Pro2 H9
No peptide CPP-FITC Calnexin
For 2-day treatm ent For 4-day treatm ent […]
Supplementary Fig. 5 a HeLa, PA- 1, and CHA15 wer e treated with CPP-FITC. […]

His-LIN28A [5] = target: T2, His-LIN28A (UniProt Q9H9Z2 1-209); test: SPR
T2 chain: T1 sequence (Q9H9Z2 1-209)

His-LIN28A [6] = target: T2, His-LIN28A; test: SPR

Question: For “KKKWCRKKKMPELQKLQQLKDE [CPP-P2, CPP conjugated to P2; negative control, reference compound]”, which “ACADL expression (dot plot)” value [1] is on record?
Answer: -0.6893

Question: What about the “AOC1 expression (dot plot)” value [1] of the same molecule?
Answer: -1.502

Question: And the “BLOC1S5-TXNDC5 expression (dot plot)” value [1]?
Answer: -0.1425

Question: What about the “TRIM39-RPP21 expression (dot plot)” value [1] of the same molecule?
Answer: 0.7164

Question: And the “let-7-5p targets, log2FC cumulative curve: Kolmogorov-Smirnov D” value [2]?
Answer: 0.07965

Question: What about the “miR-16-5p targets, log2FC cumulative curve: Kolmogorov-Smirnov D” value [2] of the same molecule?
Answer: 0.2271

Question: How did the “binding affinity vs others” value (His-LIN28A [3]) turn out when “N-STSFDRMQSALKTFAVD-C [P4, peptide derived from the UPF1 (419–700) domain]” was run?
Answer: slightly

Question: With “CPP-FITC: CPP conjugated to FITC, used to evaluate cell-penetrating ability in cells (KKKWCRKKK; also: FITC conjugate)” as the molecule, how does the “intracellular distribution” value [4] read?
Answer: distribution of CPP-FITC in the cytoplasm

Question: With SSADEKRYRALKRTAERELLMNA [P8] as the molecule, how does the koff (His-LIN28A [5]) read?
Answer: 0.0137 s⁻¹

Question: What about the Kd (His-LIN28A [6]) of the same molecule?
Answer: 5.2 µM
